For 2 molecules, refractive index, speed of sound and mass density results are on record in the NIST ThermoML archive (doi:10.1016/j.tca.2016.05.013).

Structures are written as SMILES. Numbers after ± are expanded uncertainties.

Data set [1] can be described thus: refractive index (Na D-line) (dimensionless). The conditions noted are these: 86.8 kPa, Liquid, Standard Abbe refractometry.
For data set [2] the following is noted: 86.8 kPa, Liquid; for speed of sound: Frequency=3 MHz, Sing-around technique in a fixed-path interferometer; for mass density: Vibrating tube method.
Data set [3] can be described thus: refractive index (Na D-line) (dimensionless); mn = molality of the nth substance listed, in mol/kg. The conditions noted are these: 86.8 kPa, Liquid, Standard Abbe refractometry, m2 = 0.

The term refractive index denotes a measure of how strongly the sample bends light. What is called speed of sound is the propagation velocity of pressure waves in the medium. In general, mass density refers to mass per unit of volume. Take `CCCCn1cc[n+](C)c1.O=C([O-])c1ccccc1O` [1-butyl-3-methylimidazolium salicylate]: the refractive index in data set [1] (288.15 K) was found to be 1.6503 ± 0.004; in data set [1] (298.15 K), 1.647 ± 0.004; in data set [1] (308.15 K), 1.6442 ± 0.004; in data set [1] (318.15 K), 1.6413 ± 0.004. The speed of sound in data set [2] (288.15 K) is 1721.6 ± 2.4 m/s; in data set [2] (298.15 K) it was 1679.2 ± 2.4 m/s; in data set [2] (308.15 K) it was 1640.9 ± 2.4 m/s; in data set [2] (318.15 K) it was 1606.1 ± 2.4 m/s. Further, the mass density was determined as 1155.72 ± 1.6 kg/m3 in data set [2] (288.15 K), 1148.81 ± 1.6 kg/m3 in data set [2] (298.15 K), 1142.02 ± 1.6 kg/m3 in data set [2] (308.15 K) and 1135.41 ± 1.6 kg/m3 in data set [2] (318.15 K).

With `O` [water] + CCCCn1cc[n+](C)c1.O=C([O-])c1ccccc1O, the refractive index came to 1.3329 ± 0.004 in data set [3] (288.15 K), 1.3323 ± 0.004 in data set [3] (298.15 K), 1.3316 ± 0.004 in data set [3] (308.15 K) and 1.3305 ± 0.004 in data set [3] (318.15 K).
